From paper PMC4627800, “Allelic Variation of Cytochrome P450s Drives Resistance to Bednet Insecticides in a Major Malaria Vector” (PLoS Genetics, 2015)
Like-named read-outs stand apart in the source and are kept apart here. Marks after values point to notes of the source that are not given here.

Legend:
BENCYP6P9a [1] = target: T1, BENCYP6P9a (Anopheles funestus, UniProt A0A0S1RZ75); test: Pyrethroid depletion (metabolism) assay with recombinant enzyme; format: biochemical; conditions: 20μM insecticide, 1 hour, vs -NADPH
Method: Membrane expressing recombinant CYP6P9a/-b and AgCPR, and reconstituted cytochrome b5 were added to the side of the tube and pre-incubated for 5 minutes at 30°C, with shaking at 1,200 rpm to activate the membrane. 20μM of test insecticide was then added into the final volume of 0.2ml (~2.5% v/v methanol), and reaction started by vortexing at 1,200 rpm and 30°C for 1 hour. Reactions were quenched with 0.1ml ice-cold methanol and incubated for 5 more minutes. Tubes were then centrifuged at 16,000 rpm and 4°C for 15 minutes, and 150μl of supernatant transferred into HPLC vials for analysis. Reactions were carried out in triplicates with experimental samples (+NADPH) and negative controls (-NADPH). 100μl of sample was loaded onto an isocratic mobile phase (90:10 v/v methanol to water) with a flow rate of 1ml/min, monitoring wavelength of 226nm and peaks separated with a 250mm C18 column (Acclaim 120, Dionex) on Agilent 1260 Infinity at 23°C. Enzyme activity was calculated as percentage depletion (the difference in the amount of insecticide(s) remaining in the +NADPH tubes compared with the–NADPH) and a t-test used for statistical analysis.

FANGCYP6P9b [2] = target: T2, FANGCYP6P9b (Anopheles funestus, UniProt A0A0S1RZ61); test: as above; format: biochemical; conditions: 20μM insecticide, 1 hour, vs -NADPH
Method: To establish whether allelic variation in CYP6P9a and CYP6P9b impact their metabolic activities toward insecticides, pyrethroids were screened with the recombinant enzymes from these genes. […] Membrane expressing recombinant CYP6P9a/-b and AgCPR, and reconstituted cytochrome b5 were added to the side of the tube and pre-incubated for 5 minutes at 30°C, with shaking at 1,200 rpm to activate the membrane. 20μM of test insecticide was then added into the final volume of 0.2ml (~2.5% v/v methanol), and reaction started by vortexing at 1,200 rpm and 30°C for 1 hour. Reactions were quenched with 0.1ml ice-cold methanol and incubated for 5 more minutes. Tubes were then centrifuged at 16,000 rpm and 4°C for 15 minutes, and 150μl of supernatant transferred into HPLC vials for analysis. Reactions were carried out in triplicates with experimental samples (+NADPH) and negative controls (-NADPH). 100μl of sample was loaded onto an isocratic mobile phase (90:10 v/v methanol to water) with a flow rate of 1ml/min, monitoring wavelength of 226nm and peaks separated with a 250mm C18 column (Acclaim 120, Dionex) on Agilent 1260 Infinity at 23°C. Enzyme activity was calculated as percentage depletion (the difference in the amount of insecticide(s) remaining in the +NADPH tubes compared with the–NADPH) and a t-test used for statistical analysis.

BENCYP6P9b = BENCYP6P9b (Anopheles funestus, UniProt A0A0S1S7Y0); test: as above; format: biochemical; conditions: 20μM insecticide, 1 hour, vs -NADPH
UGANCYP6P9b = UGANCYP6P9b (Anopheles funestus, UniProt A0A0S1S7Y0); test: as above; format: biochemical; conditions: 20μM insecticide, 1 hour, vs -NADPH
BENCYP6P9a [3] = target: T1, BENCYP6P9a; test: Steady-state kinetics of pyrethroid metabolism; format: biochemical
Method: (§1) Reactions were performed in triplicates both for +NADPH (experimental tubes) and–NADPH (negative control). K m and V max were established from the plot of substrate concentrations against the initial velocities and fitting of the data to the Michaelis-Menten module using the least squares non-linear regression, as described in the GraphPad Prism 6.03 Software (GraphPad Inc., La Jolla, CA, USA).

MALCYP6P9a = MALCYP6P9a (Anopheles funestus, UniProt B5AII6); test: Steady-state kinetics of pyrethroid metabolism; format: biochemical
Method: as §1

MALCYP6P9b = MALCYP6P9b (Anopheles funestus, UniProt B5AII7); test: Steady-state kinetics of pyrethroid metabolism; format: biochemical
Method: as §1

FANGCYP6P9a = FANGCYP6P9a (Anopheles funestus, UniProt K7Z0P3)
Method: as §1

FANGCYP6P9b [4] = target: T2, FANGCYP6P9b
Method: as §1

Asn^384Ser_CYP6P9b = Asn^384Ser_CYP6P9b (Anopheles funestus, UniProt B5AII7, N384S); test: Kinetics of permethrin metabolism by CYP6P9b mutants; format: biochemical
Method: as §1
(§2) In addition, fluorescent probes were also screened to establish differences in the O-dealkylation activity of the mutants compared with the wild type enzyme. All in vitro and kinetic analyses were conducted as described above. However, as different mutants expressed with varying concentrations all assays were conducted within linear range, with the amount of enzyme and time which produced highest activities.

Asp^335Glu_CYP6P9b = Asp^335Glu_CYP6P9b (Anopheles funestus, UniProt B5AII7, D335E); test: as above; format: biochemical
Method: as §1, §2

Pro^401Ala_CYP6P9b = Pro^401Ala_CYP6P9b (Anopheles funestus, UniProt B5AII7, P401A); test: as above; format: biochemical
Method: as §1, §2

Val^109Ile_CYP6P9b = Val^109Ile_CYP6P9b (Anopheles funestus, UniProt B5AII7, V109I); test: as above; format: biochemical
Method: as §1, §2

[5] = test system: Asp^335Glu mutant of MALCYP6P9b; conditions: 20μM insecticide
Method: (§3) To establish whether allelic variation in CYP6P9a and CYP6P9b impact their metabolic activities toward insecticides, pyrethroids were screened with the recombinant enzymes from these genes. […] Membrane expressing recombinant CYP6P9a/-b and AgCPR, and reconstituted cytochrome b5 were added to the side of the tube and pre-incubated for 5 minutes at 30°C, with shaking at 1,200 rpm to activate the membrane. 20μM of test insecticide was then added into the final volume of 0.2ml (~2.5% v/v methanol), and reaction started by vortexing at 1,200 rpm and 30°C for 1 hour. Reactions were quenched with 0.1ml ice-cold methanol and incubated for 5 more minutes. Tubes were then centrifuged at 16,000 rpm and 4°C for 15 minutes, and 150μl of supernatant transferred into HPLC vials for analysis. Reactions were carried out in triplicates with experimental samples (+NADPH) and negative controls (-NADPH). 100μl of sample was loaded onto an isocratic mobile phase (90:10 v/v methanol to water) with a flow rate of 1ml/min, monitoring wavelength of 226nm and peaks separated with a 250mm C18 column (Acclaim 120, Dionex) on Agilent 1260 Infinity at 23°C.
(§4) In addition, fluorescent probes were also screened to establish differences in the O-dealkylation activity of the mutants compared with the wild type enzyme. All in vitro and kinetic analyses were conducted as described above. […]

[6] = test system: Val^109Ile mutant of MALCYP6P9b; conditions: 20μM insecticide
Method: as §3, §4

[7] = test system: transgenic flies over-expressing FANGCYP6P9a; conditions: 2% permethrin paper
Method: (§5) Primers used for this PCR are given in S8 Table. PCR conditions, cloning techniques, construction of transgenic flies and expression of candidate genes was conducted as described in previous studies, with more details provided in S1 Text. For control group, flies with the same background as the UAS transgenic lines but devoid of the UAS construct with the candidate gene were crossed with the driver Actin5C-GAL4 line to generate Actin5C-GAL4-null flies.
(§6) These papers were then rolled and introduced into 45 cc plastic vials. The vials were then plugged with cotton wool soaked in 5% sucrose. 20–25 (2–4 days old, post-eclosion F1 females) were selected for the bioassays and introduced into the vials. Mortality plus knockdown was scored after 1 hr, 2 hrs, 3 hrs, 6 hrs, 12 hrs and 24 hrs post-exposure to the discriminating dose of the insecticides.

[8] = test system: transgenic flies over-expressing FANGCYP6P9b; conditions: 2% permethrin paper
Method: as §5, §6

[9] = test system: transgenic flies over-expressing MALCYP6P9a; conditions: 2% permethrin paper
Method: as §5, §6

[10] = test system: transgenic flies over-expressing MALCYP6P9b; conditions: 2% permethrin paper
Method: as §5, §6

CYP6M2 = test system: CYP6M2; set-up: method as in ref [5] (S1 Text); conditions: cited from earlier work

CC1(C)C(C=C(Cl)Cl)C1C(=O)OCc1cccc(Oc2ccccc2)c1 (stereo not drawn) [permethrin]
Percentage depletion (BENCYP6P9a [1]): 66.42±2.23 %
Percentage depletion (FANGCYP6P9b [2]): 13.7±4.23%
Percentage depletion (BENCYP6P9b): 89.63±0.63 %
Percentage depletion (UGANCYP6P9b): 88.58±3.48 %
Kcat (BENCYP6P9a [3]): 9.37±3.32^a min^-1
Kcat, fold higher than FANGCYP6P9a (BENCYP6P9a [3]; BENCYP6P9a vs FANGCYP6P9a): 2 fold
catalytic efficiency, fold higher than FANGCYP6P9a (BENCYP6P9a [3]; BENCYP6P9a vs FANGCYP6P9a): 3 fold
Kcat (MALCYP6P9a): 15.41±6.30^a min^-1
Km (MALCYP6P9a): 18.8 ± 11.8 µM
Kcat, fold higher than FANGCYP6P9a (MALCYP6P9a; MALCYP6P9a vs FANGCYP6P9a): 3 fold
catalytic efficiency, fold higher than FANGCYP6P9a (MALCYP6P9a; MALCYP6P9a vs FANGCYP6P9a): 6 fold
Kcat (MALCYP6P9b): 12.38±4.5^b min^-1
Km (MALCYP6P9b): 12.7 ± 2.68 µM
Kcat, fold higher than FANGCYP6P9b (MALCYP6P9b; MALCYP6P9b vs FANGCYP6P9b): 3 fold
catalytic efficiency, fold more efficient than FANGCYP6P9b (MALCYP6P9b; MALCYP6P9b vs FANGCYP6P9b): 5 fold
Kcat (FANGCYP6P9a): 0.0825 ± 0.032 s⁻¹
Kcat (FANGCYP6P9b [4]): 0.075 ± 0.0225 s⁻¹
Km (FANGCYP6P9b [4]): 20.5 ± 8.31 µM
Km (Asn^384Ser_CYP6P9b): 17.9 ± 0.87 µM
Km of mutant, fold of Asp^335Glu mutant (Asn^384Ser_CYP6P9b): 4 fold
Km of mutant, fold of wrMALCYP6P9b (Asn^384Ser_CYP6P9b): 2 fold
Kcat (Asn^384Ser_CYP6P9b; Asn^384Ser_CYP6P9b, mean ± S.E.M.): 0.87±0.08*** min^-1
Kcat of wrMALCYP6P9b, fold of mutant (Asn^384Ser_CYP6P9b; wrMALCYP6P9b vs Asn^384Ser): 9 fold
catalytic efficiency of wrMALCYP6P9b, fold of mutant (Asn^384Ser_CYP6P9b; wrMALCYP6P9b vs Asn^384Ser): 20 fold
Km (Asp^335Glu_CYP6P9b): 5.19 ± 1.89 µM
Kcat (Asp^335Glu_CYP6P9b; Asp^335Glu_CYP6P9b, mean ± S.E.M.): 0.98±0.12*** min^-1
Kcat of wrMALCYP6P9b, fold of mutant (Asp^335Glu_CYP6P9b; wrMALCYP6P9b vs Asp^335Glu): 8 fold
catalytic efficiency of wrMALCYP6P9b, fold of mutant (Asp^335Glu_CYP6P9b; wrMALCYP6P9b vs Asp^335Glu): 4 fold
Km (Pro^401Ala_CYP6P9b): 15.4 ± 6.5 µM
Kcat (Pro^401Ala_CYP6P9b; Pro^401Ala_CYP6P9b, mean ± S.E.M.): 4.21±0.96* min^-1
catalytic efficiency of wrMALCYP6P9b, fold of mutant (Pro^401Ala_CYP6P9b; wrMALCYP6P9b vs Pro^401Ala): 3 fold
Km (Val^109Ile_CYP6P9b): 20.5 ± 1.35 µM
Km of mutant, fold of Asp^335Glu mutant (Val^109Ile_CYP6P9b): 4 fold
Km of mutant, fold of wrMALCYP6P9b (Val^109Ile_CYP6P9b): 2 fold
Kcat (Val^109Ile_CYP6P9b; Val^109Ile_CYP6P9b, mean ± S.E.M.): 1.35±0.57** min^-1
Kcat of wrMALCYP6P9b, fold of mutant (Val^109Ile_CYP6P9b; wrMALCYP6P9b vs Val^109Ile): 6 fold
catalytic efficiency of wrMALCYP6P9b, fold of mutant (Val^109Ile_CYP6P9b; wrMALCYP6P9b vs Val^109Ile): 13 fold
fold less depletion than wrMALCYP6P9b [5]: 2.15 fold
fold less depletion than wrMALCYP6P9b [6]: 2 fold
mortality ([7]; 2 hrs): 30%
mortality ([7]; 3 hrs): ~ 60%
mortality ([7]; 6 hrs): ~ 70%
mortality ([8]; 12 hrs): 55%
mortality ([8]; 24 hrs): ~ 60%
mortality ([9]; 2 hrs): less than 10%
mortality ([9]; 3 hrs): < 30%
mortality ([9]; 6 hrs): < 45%
mortality ([10]; 12 hrs): < 30%
mortality ([10]; 24 hrs): ~ 30%
Km (CYP6M2; An. gambiae CYP6M2 ref [5] (S1 Text)): 12 µM
catalytic efficiency (CYP6M2; Anopheles gambiae CYP6M2 ref [5] (S1 Text)): ~ 0.5 min^-1µM^-1
